# Literature values, collected in US20230390267A1, “TREATMENT REGIMENS FOR EARLY IDIOPATHIC PARKINSON'S DISEASE” (BIAL - PORTELA & CA., S.A., priority 2020, published 2023).
# Where two headings read alike, the source gives them in different places.
# How the values were obtained:
# [1] = cited from earlier work
# [2] = system: patients suffering from early idiopathic Parkinson's disease; settings: addition of entacapone to levodopa/DDCI in early PD; cited from earlier work
# [3] = system: 'stable' PD patients; settings: 6 months, cited from earlier work
# [4] = tolcapone 100 mg three times daily
# [5] = tolcapone 200 mg three times daily
structure (smiles),measurement,setting,value
N[C@@H](Cc1ccc(O)c(O)c1)C(=O)O [levodopa],plasma half-life of levodopa,[1]; oral levodopa combined with carbidopa,1.5 h
same,half-life of oral levodopa,[1]; when administered with DDCIs,1 to 1.5 h
same,extent of brain penetration of levodopa,[1]; when combined with a DDCI,10%
CCN(CC)C(=O)/C(C#N)=C/c1cc(O)c(O)c([N+](=O)[O-])c1 [entacapone],onset of motor complications and frequency of dyskinesia,[2],shorter time to onset of motor complications and increased frequency of dyskinesia
Cc1ccc(C(=O)c2cc(O)c(O)c([N+](=O)[O-])c2)cc1 [tolcapone],reduction in UPDRS Part II activities of daily living (ADL) score,[3]; [4],−1.4 points
same,reduction in UPDRS motor score,[3]; [4],−2.0 points
same,reduction in UPDRS Part II activities of daily living (ADL) score,[3]; [5],−1.6 points
same,reduction in UPDRS motor score,[3]; [5],−2.3 points
